Assay: molar heat capacity at saturation pressure

CCCCn1cc[n+](C)c1.Cc1ccc(S(=O)(=O)[O-])cc1 [1-butyl-3-methylimidazolium tosylate]
molar heat capacity [J/K/mol]
Conditions | Crystal 1 | Metastable crystal
205.31 K | – | 319.1
205.46 K | 296.26 | –
207.12 K | 298.09 | –
207.15 K | 298.12 | –
207.23 K | – | 320.66
207.42 K | 298.43 | –
209.08 K | 300.36 | –
209.12 K | 300.45 | –
209.16 K | – | 322.21
209.38 K | 300.6 | –
211.04 K | 302.62 | –
211.08 K | – | 323.45
211.09 K | 302.68 | –
211.34 K | 302.99 | –
213 K | 304.79 | 325
213.05 K | 304.92 | –
213.31 K | 305.26 | –
214.92 K | – | 326.24
214.96 K | 307.15 | –
215.01 K | 307.18 | –
215.27 K | 307.65 | –
216.84 K | – | 328.11
216.91 K | 309.57 | –
216.97 K | 309.61 | –
217.22 K | 309.92 | –
218.76 K | – | 329.66
218.87 K | 311.96 | –
218.93 K | 311.96 | –
219.18 K | 312.59 | –
220.68 K | – | 331.83
220.82 K | 314.45 | –
220.88 K | 314.45 | –
221.13 K | 314.76 | –
222.6 K | – | 333.69
222.77 K | 317.86 | –
222.83 K | 317.24 | –
223.07 K | 317.55 | –
224.51 K | – | 336.8
224.72 K | 321.28 | –
224.77 K | 321.9 | –
225.01 K | 321.59 | –
226.41 K | – | 340.21
226.65 K | 326.86 | –
226.7 K | 326.55 | –
226.94 K | 328.11 | –
228.3 K | – | 347.04
228.56 K | 332.14 | –
228.61 K | 331.83 | –
228.85 K | 333.69 | –
230.18 K | – | 352.94
230.47 K | 336.18 | –
230.52 K | 335.56 | –
230.75 K | 336.8 | –
232.06 K | – | 355.11
232.37 K | 339.9 | –
232.43 K | 338.97 | –
232.65 K | 340.21 | –
233.94 K | – | 356.97
234.27 K | 341.76 | –
234.33 K | 341.76 | –
234.55 K | 342.7 | –
235.82 K | – | 358.22
236.17 K | 343.94 | –
236.24 K | 343.01 | –
236.45 K | 344.25 | –
237.7 K | – | 359.46
238.07 K | 346.11 | –
238.14 K | 345.18 | –
238.35 K | 346.42 | –
239.58 K | – | 361.01
239.97 K | 348.28 | –
240.04 K | 347.35 | –
240.25 K | 348.9 | –
241.45 K | – | 362.87
241.87 K | 350.46 | –
241.94 K | 349.52 | –
242.14 K | 350.77 | –
243.33 K | – | 364.42
243.76 K | 352.32 | –
243.83 K | 351.7 | –
244.04 K | 352.94 | –
245.21 K | – | 365.98
245.66 K | 354.49 | –
245.73 K | 353.87 | –
245.93 K | 355.11 | –
247.08 K | – | 367.84
247.55 K | 356.97 | –
247.62 K | 356.04 | –
247.82 K | 357.29 | –
248.96 K | – | 369.39
249.44 K | 359.15 | –
249.51 K | 358.53 | –
249.71 K | 359.46 | –
250.83 K | – | 371.25
251.33 K | 361.32 | –
251.4 K | 360.39 | –
251.59 K | 361.63 | –
252.7 K | – | 372.81
253.22 K | 363.49 | –
253.29 K | 362.87 | –
253.47 K | 363.8 | –
254.58 K | – | 374.67
255.11 K | 365.67 | –
255.17 K | 364.74 | –
255.35 K | 365.98 | –
256.45 K | – | 376.53
256.99 K | 367.84 | –
257.06 K | 367.22 | –
257.23 K | 368.15 | –
258.32 K | – | 378.39
258.88 K | 370.01 | –
258.94 K | 369.08 | –
259.11 K | 370.32 | –
260.2 K | – | 380.26
260.77 K | 372.19 | –
260.82 K | 371.56 | –
261 K | 372.5 | –
262.07 K | – | 381.81
262.65 K | 374.36 | –
262.71 K | 373.43 | –
262.87 K | 374.67 | –
263.94 K | – | 383.36
264.53 K | 376.22 | –
264.59 K | 375.6 | –
264.75 K | 376.53 | –
265.82 K | – | 385.53
266.42 K | 378.39 | –
266.47 K | 377.46 | –
266.63 K | 378.39 | –
267.69 K | – | 387.4
268.31 K | 380.57 | –
268.36 K | 379.63 | –
268.52 K | 380.88 | –
269.56 K | – | 388.95
270.19 K | 382.43 | –
270.25 K | 381.81 | –
270.4 K | 382.74 | –
271.43 K | – | 391.12
272.08 K | 384.6 | –
272.14 K | 383.36 | –
272.29 K | 384.6 | –
273.3 K | – | 393.6
273.97 K | 386.46 | –
274.03 K | 385.53 | –
274.19 K | 386.46 | –
275.16 K | – | 396.09
275.87 K | 388.64 | –
275.92 K | 388.02 | –
276.08 K | 388.33 | –
277.01 K | – | 399.5
277.76 K | 391.12 | –
277.8 K | 390.5 | –
277.97 K | 390.81 | –
278.86 K | – | 403.54
279.64 K | 393.6 | –
279.67 K | 393.29 | –
279.85 K | 393.6 | –
280.7 K | – | 407.57
281.51 K | 396.71 | –
281.53 K | 397.02 | –
281.71 K | 397.02 | –
282.53 K | – | 410.68
